# Where a name gives a salt, the structure may show the parent alone.
# Molecular target: T1, Lot6p (Saccharomyces cerevisiae, UniProt Q07923)
# T1 sequence (Q07923 1-191): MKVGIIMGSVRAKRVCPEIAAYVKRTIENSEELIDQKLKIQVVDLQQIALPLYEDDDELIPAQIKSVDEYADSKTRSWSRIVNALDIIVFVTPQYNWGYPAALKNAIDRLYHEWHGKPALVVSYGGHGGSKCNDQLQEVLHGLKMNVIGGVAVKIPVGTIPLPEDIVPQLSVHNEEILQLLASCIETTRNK
# Assay: stopped-flow oxidation of reduced enzyme at […] nm
# Format: biochemical
row,Compound,k2
1,"O=C1C=C(S(=O)(=O)O)c2ccccc2C1=O [1,2-Napthoquinone-4-sulfonic acid, Na salt]",142000 M⁻¹ s⁻¹
2,"O=C1C=CC(=O)C=C1 [1,4-Benzoquinone]",1.03e+07 M⁻¹ s⁻¹
3,"O=C1C=C(O)C(=O)c2ccccc21 [2-Hydroxy-1,4-naphthoquinone]",7580 M⁻¹ s⁻¹
4,COC1=C(OC)C(=O)C(C)=CC1=O [Coenzyme Q0],6.45e+06 M⁻¹ s⁻¹
5,CC1=CC(=O)c2ccccc2C1=O [Menadione],677000 M⁻¹ s⁻¹
6,"O=C1c2ccccc2C(=O)c2c1cccc2S(=O)(=O)O [Na-anthraquinone, α-sulfonate]",1810 M⁻¹ s⁻¹

# Molecular target: T1, Lot6p
# Assay: not given
# Format: biochemical
row,Compound,Kd
1,NC(=O)C1=CN([C@@H]2O[C@H](COP(=O)(O)OP(=O)(O)OC[C@H]3O[C@@H](n4cnc5c(N)ncnc54)[C@H](O)[C@@H]3O)[C@@H](O)[C@H]2O)C=CC1 [NADH],9.6 ± 2.4 mM
2,NC(=O)C1=CN([C@@H]2O[C@H](COP(=O)(O)OP(=O)(O)OC[C@H]3O[C@@H](n4cnc5c(N)ncnc54)[C@H](OP(=O)(O)O)[C@@H]3O)[C@@H](O)[C@H]2O)C=CC1 [NADPH],12.5 ± 1.1 mM

# Reference: PMC3004048 (Biochemistry, 2009)
